From patent US8580790B2, “(Heterocycle/condensed piperidine)-(piperazinyl)-1-alkanone or (heterocycle/condensed pyrrolidine)-(piperazinyl)-1-alkanone derivatives and use thereof as p75 inhibitors” (Sanofi, priority 2009, dated 2013)
Structures can show the parent of a compound that is named as a salt.

Compound	melting point [°C]
C[C@@H]1CN(c2ccc(C(=O)O)cn2)C[C@H](C)N1CC(=O)N1CCc2nn(-c3ccccc3)cc2C1 [compound 149, 6-{(3S,5R)-3,5-dimethyl-4-[2-oxo-2-(2-phenyl-2,4,6,7-tetrahydropyrazolo[4,3-c]pyridin-5-yl)ethyl]piperazin-1-yl}nicotinic acid]	208 to 209
Cc1nc(-c2ccc(N3C[C@@H](C)N(CC(=O)N4CCc5nn(-c6ccccc6)cc5C4)[C@@H](C)C3)nc2)no1 [compound 89, 2-{(2S,6R)-2,6-dimethyl-4-[5-(5-methyl[1,2,4]oxadiazol-3-yl)-pyridin-2-yl]piperazin-1-yl}-1-(2-phenyl-2,4,6,7-tetrahydropyrazolo[4,3-c]pyridin-5-yl)ethanone]	163 to 164
O=C(CN1CC2CCC(C1)N2c1ncc(F)cn1)N1CCc2nc(-c3ccccc3)ncc2C1	212 to 213
C[C@@H]1CN(c2ccc(C(F)(F)F)cn2)C[C@H](C)N1CC(=O)N1CCc2nn(-c3ccccn3)cc2C1 [compound 118, 2-[(2S,6R)-2,6-dimethyl-4-(5-trifluoromethylpyridin-2-yl)piperazin-1-yl]-1-(2-pyridin-2-yl-2,4,6,7-tetrahydropyrazolo[4,3-c]pyridin-5-yl)ethanone]	165 to 166
O=C(CN1CC2CCC(C1)N2c1ncc(F)cn1)N1CCc2c(cnn2-c2ccc(C(F)(F)F)cc2)C1	162 to 164
O=C(CN1CC2CCC(C1)N2c1ncc(F)cn1)N1CCc2c(cnn2CC(F)(F)F)C1 (as salt: oxalate)	160 to 162
C[C@@H]1CN(c2ccc(C(F)(F)F)cn2)C[C@H](C)N1CC(=O)N1CCc2nc(-c3ccccc3)[nH]c2C1 [compound 110, 2-[(2S,6R)-2,6-dimethyl-4-(5-trifluoromethylpyridin-2-yl)piperazin-1-yl]-1-(2-phenyl-3,4,6,7-tetrahydroimidazo[4,5-c]pyridin-5-yl)ethanone]	189 to 192
COC(=O)c1ccc(N2C3CCC2CN(CC(=O)N2Cc4nc(-c5ccccc5)sc4C2)C3)nc1	252 to 253
C[C@@H]1CN(c2cnccn2)C[C@H](C)N1CC(=O)N1CCc2nn(-c3ccc(C(F)(F)F)cn3)cc2C1 [compound 111, 2-((3S,5R)-3,5-dimethyl-2,3,5,6-tetrahydro[1,2′]bipyrazinyl-4-yl)-1-[2-(5-trifluoromethylpyridin-2-yl)-2,4,6,7-tetrahydropyrazolo[4,3-c]pyridin-5-yl]ethanone]	150 to 151
CC(C)(C)n1ncc2c1CCN(C(=O)CN1CC3CCC(C1)N3c1ncc(F)cn1)C2	142 to 143
O=C(OC1CCC1)c1ccc(N2C3CCC2CN(CC(=O)N2CCc4nn(-c5ccccc5)cc4C2)C3)nc1	176 to 177
O=C(CN1CC2CCC(C1)N2c1ccc(-c2noc(=O)[nH]2)cn1)N1CCc2nc(-c3ccccc3)sc2C1	215 to 218
O=C(CN1CCN(c2ccc(C(F)(F)F)cn2)C(=O)C1)N1CCc2nc(-c3cccnc3)sc2C1 [compound 84, 4-[2-oxo-2-(2-pyridin-3-yl-6,7-dihydro-4H-thiazolo[5,4-c]pyridin-5-yl)ethyl]-1-(5-trifluoromethylpyridin-2-yl)piperazin-2-one]	180 to 183
CCn1cc2c(n1)CCN(C(=O)CN1CCN(c3ccc(C(F)(F)F)cn3)C(=O)C1)C2 [compound 148, 4-[2-(2-ethyl-2,4,6,7-tetrahydropyrazolo[4,3-c]pyridin-5-yl)-2-oxoethyl]-1-(5-trifluoromethylpyridin-2-yl)piperazin-2-one]	151 to 152
O=C(O)c1ccc(N2C3CCC2CN(CC(=O)N2CCc4nc(-c5ccc(F)cc5)sc4C2)C3)nc1	240 to 244
O=C(CN1CC2CCC(C1)N2c1ncc(F)cn1)N1CCc2nn(-c3ccc(C(F)(F)F)cn3)cc2C1	208 to 209
O=C(CN1CC2CCC(C1)N2c1ncc(F)cn1)N1CCc2n[nH]cc2C1	122 to 123
O=C(CN1CC2CCC(C1)N2c1ccc(-c2ncon2)cn1)N1CCc2nn(-c3ccccc3)cc2C1	201 to 202
O=C(CN1CCN(c2ccc(C(F)(F)F)cn2)C(=O)C1)N1CCc2oc(-c3ccccc3)nc2C1 [compound 83, 4-[2-oxo-2-(2-phenyl-6,7-dihydro-4H-oxazolo[4,5-c]pyridin-5-yl)ethyl]-1-(5-trifluoromethylpyridin-2-yl)piperazin-2-one]	140 to 142

Compound	melting point [°C]
O=C(CN1CC2CCC(C1)N2c1cccnc1)N1CCc2nn(-c3ccccn3)cc2C1	61 to 62
COC(=O)c1ccc(N2C[C@@H](C)N(CC(=O)N3CCc4c(cnn4C(C)(C)C)C3)[C@@H](C)C2)nc1 [compound 92, 6-{(3S,5R)-4-[2-(1-tert-butyl-1,4,6,7-tetrahydropyrazolo[4,3-c]pyridin-5-yl)-2-oxoethyl]-3,5-dimethylpiperazin-1-yl}nicotinic acid methyl ester]	134 to 135
COc1ccc(-n2cc3c(n2)CCN(C(=O)CN2CC4CCC(C2)N4c2ncc(F)cn2)C3)cc1	186 to 188
C[C@@H]1CN(c2ncc(F)cn2)C[C@H](C)N1CC(=O)N1CCc2nn(-c3ccccc3)cc2C1 [compound 17, 2-[(2S,6R)-4-(5-fluoropyrimidin-2-yl)-2,6-dimethylpiperazin-1-yl]-1-(2-phenyl-2,4,6,7-tetrahydropyrazolo[4,3-c]pyridin-5-yl)ethanone]	174 to 175
COc1ccc(-c2nc3c(s2)CN(C(=O)CN2[C@H](C)CN(c4ncc(F)cn4)C[C@@H]2C)CC3)cc1 [compound 132, 2-[(2S,6R)-4-(5-fluoropyrimidin-2-yl)-2,6-dimethylpiperazin-1-yl]-1-[2-(4-methoxyphenyl)-6,7-dihydro-4H-thiazolo[5,4-c]pyridin-5-yl]ethanone]	159 to 161
O=C(CN1CCN(c2cncc(Cl)n2)CC1)N1CCc2nn(-c3ccc(C(F)(F)F)cn3)cc2C1 [compound 108, 2-(6′-chloro-2,3,5,6-tetrahydro[1,2′]bipyrazinyl-4-yl)-1-[2-(5-trifluoromethylpyridin-2-yl)-2,4,6,7-tetrahydropyrazolo[4,3-c]pyridin-5-yl]ethanone]	185 to 186
C[C@@H]1CN(c2ccc(-c3nnco3)cn2)C[C@H](C)N1CC(=O)N1CCc2nn(-c3ccccc3)cc2C1 [compound 90, 2-[(2S,6R)-2,6-dimethyl-4-(5-[1,3,4]oxadiazol-2-ylpyridin-2-yl)piperazin-1-yl]-1-(2-phenyl-2,4,6,7-tetrahydropyrazolo[4,3-c]pyridin-5-yl)ethanone]	189 to 190
O=C(CN1CC2CC1CN2c1ccc(C(F)(F)F)nn1)N1CCc2nn(-c3ccc(C(F)(F)F)cn3)cc2C1 (centres unmarked) [compound 107, 2-[5-(6-trifluoromethylpyridazin-3-yl)-2,5-diazabicyclo[2.2.1]hept-2-yl]-1-[2-(5-trifluoromethylpyridin-2-yl)-2,4,6,7-tetrahydropyrazolo[4,3-c]pyridin-5-yl]ethanone]	140 to 141
O=C(CN1CCN(c2ccc(C(F)(F)F)cn2)C(=O)C1)N1CCc2nc(-c3ccsc3)sc2C1 [compound 42, 4-[2-oxo-2-(2-thiophen-3-yl-6,7-dihydro-4H-thiazolo[5,4-c]pyridin-5-yl)ethyl]-1-(5-trifluoromethylpyridin-2-yl)piperazin-2-one]	179 to 180
C[C@@H]1CN(c2ncc(C(=O)O)cn2)C[C@H](C)N1CC(=O)N1CCc2nc(-c3ccccc3)sc2C1 (as salt: sodium) [compound 72, 2-{(3S,5R)-3,5-dimethyl-4-[2-oxo-2-(2-phenyl-6,7-dihydro-4H-thiazolo[5,4-c]pyridin-5-yl)ethyl]piperazin-1-yl}pyrimidine-5-carboxylic acid]	269 to 272
C[C@@H]1CN(c2cccnc2)C[C@H](C)N1CC(=O)N1CCc2nc(-c3ccccc3)[nH]c2C1 [compound 145, 2-((2S,6R)-2,6-dimethyl-4-pyridin-3-ylpiperazin-1-yl)-1-(2-phenyl-3,4,6,7-tetrahydroimidazo[4,5-c]pyridin-5-yl)ethanone]	207 to 209
O=C(CN1CC2CCC(C1)N2c1ncc(F)cn1)N1CCc2sc(-c3ccccc3)nc2C1	180 to 184
Cc1noc(-c2ccc(N3C[C@@H](C)N(CC(=O)N4CCc5nn(-c6ccccc6)cc5C4)[C@@H](C)C3)nc2)n1 [compound 91, 2-{(2S,6R)-2,6-dimethyl-4-[5-(3-methyl-[1,2,4]oxadiazol-5-yl)-pyridin-2-yl]piperazin-1-yl}-1-(2-phenyl-2,4,6,7-tetrahydropyrazolo[4,3-c]pyridin-5-yl)ethanone]	168 to 171
C[C@@H]1CN(c2ccc(C(F)(F)F)cn2)C[C@H](C)N1CC(=O)N1CCc2cc(-c3ccccc3)oc2C1 [compound 97, 2-[(2S,6R)-2,6-dimethyl-4-(5-trifluoromethylpyridin-2-yl)piperazin-1-yl]-1-(2-phenyl-4,7-dihydro-5H-furano[2,3-c]pyridin-6-yl)ethanone]	162
O=C(CN1CC2CCC(C1)N2c1ccc(-c2noc(=O)[nH]2)cn1)N1CCc2nn(-c3ccccc3)cc2C1	176 to 179
O=C(O)c1ccc(N2C3CCC2CN(CC(=O)N2CCc4nc(-c5ccsc5)sc4C2)C3)nc1	262 to 264
O=C(CN1CCN(c2ccc(C(F)(F)F)cn2)C(=O)C1)N1CCc2nc(-c3ccc(F)cc3)[nH]c2C1 [compound 120, 4-{2-[2-(4-fluorophenyl)-3,4,6,7-tetrahydroimidazo[4,5-c]pyridin-5-yl]-2-oxoethyl}-1-(5-trifluoromethylpyridin-2-yl)piperazin-2-one]	190 to 192
C[C@@H]1CN(c2ncc(C(=O)O)cn2)C[C@H](C)N1CC(=O)N1CCc2nn(-c3ccccc3)cc2C1 [compound 75, 2-{(3S,5R)-3,5-dimethyl-4-[2-oxo-2-(2-phenyl-2,4,6,7-tetrahydropyrazolo[4,3-c]pyridin-5-yl)ethyl]piperazin-1-yl}pyrimidine-5-carboxylic acid]	94 to 97
C[C@@H]1CN(c2cccnc2)C[C@H](C)N1CC(=O)N1CCc2nn(-c3ccc(C(F)(F)F)cn3)cc2C1 [compound 143, 2-((2S,6R)-2,6-dimethyl-4-pyridin-3-ylpiperazin-1-yl)-1-[2-(5-trifluoromethylpyridin-2-yl)-2,4,6,7-tetrahydropyrazolo[4,3-c]pyridin-5-yl]ethanone]	196 to 197
